Columns and labels:
[1] = Adverse events after single oral doses, healthy subjects (Part A); type: in vivo, human; conditions: for Blood creatine phosphokinase increased (adverse events reported by >1 subject in total) / Diarrhea (drug-related adverse events) / Dizziness (drug-related adverse events) / Headache (adverse events reported by >1 subject in total) / Headache (drug-related adverse events) / Hot flush (drug-related adverse events) / At least one adverse event: healthy subjects; for At least one adverse event: n = 8
Procedure: This double-blind, randomized, placebo-controlled, single escalating-dose crossover study was conducted in two parts: Part A consisted of a randomized, dose-escalation in healthy subjects; Part B was of similar design, but conducted in subjects with T2DM and included an evaluation of pharmacodynamics using a 50 g oral glucose tolerance test (OGTT).
Ten healthy subjects were evaluated in 5 study sessions, each separated by approximately 2 weeks. At each study session, subjects received either an oral dose of remogliflozin etabonate or placebo after an overnight fast. Remogliflozin etabonate doses were 20 mg, 50 mg, 150 mg, 500 mg and 1000 mg. Over the course of participation in the study, each subject received 4 of the 5 active remogliflozin etabonate doses and 1 dose of placebo (4:1 active to placebo ratio per treatment period). The available safety and PK results from each dosing period were evaluated before proceeding to the next dose level.
(§1) All subjects were admitted to the unit two nights prior to receiving study drug to establish baseline safety parameters and fluid intake levels over a 36 h period. Subjects remained in the unit for at least 24 h after doses were administered for monitoring of clinical laboratory parameters exploratory biomarkers, vital signs, ECGs and adverse events. While confined to the clinical research unit, all subjects received meals standardized with respect to calories, fat, protein, carbohydrate, and sodium content; however, detailed dietary information was not captured in this study. In Part A, subjects were dosed following an overnight fast; lunch and dinner were provided at 4 and 10 h after dosing, respectively. Fifteen minutes after dosing in each treatment period in Part B, a fasting OGTT was performed using 50 g glucose (administered as 50 g Glucola™). A 50 g glucose load was chosen since the OGTT was being performed in subjects already known to have diabetes. The glucose drink was consumed by subjects within approximately 5 minutes. Blood samples for the measurement of glucose, insulin, and intact glucagon-like peptide 1 (GLP-1) were collected for 24 hours following dose administration. Provided that there were no safety or tolerability concerns, subjects were released from the clinic on day 2 of each treatment period until their return for the next treatment or follow-up period. Each subject was involved in the study for approximately 8 weeks (from screening to follow-up).

[2] = Plasma glucose, insulin and intact GLP-1 after 50 g OGTT, T2DM subjects; type: in vivo, human; conditions: for median baseline adjusted AUC(0–4) for plasma GLP-1 following an OGTT: placebo 6.36
Procedure: as §1
Blood samples for glucose were taken at 0 (pre-dose), and 1, 2, 4, 8 and 12 h after dosing in each treatment period (Part A). For Part B, blood samples for glucose, insulin and GLP-1 were taken at check-in on day -2, and at 0 h (pre-dose), and 0.5, 1, 1.5, 2, 4 h (prior to lunch), 4.5, 5, 6, 8, 10, 12 and 24 h after dosing on day 1 of each treatment period.
For glucose, plasma was analyzed using a YSI 2300 Glucose Analyzer (Yellow Springs International Life Sciences, Yellow Springs, OH, USA). For insulin, plasma was rapidly prepared and frozen at -70°C until analyzed by LabCorp (San Diego, CA, USA) using a chemiluminescent immunometric assay method (Siemen’s Immulite 2000 analyzer with Immulite Insulin Kit L2KIN2).
For assay of intact GLP-1, blood was collected into a chilled EDTA tube and protease inhibitors (DPP4 inhibitor obtained from EMD Millipore, St. Charles, MO) were immediately added. Samples were then spun down and plasma split into two separate tubes and frozen at -70°C until analyzed by Pathway Diagnostics (Malibu, CA, USA) by ELISA (kit # EGLP-35 K, EMD Millipore). The lowest level of intact GLP-1 this assay can detect is 2 pM (with a minimum plasma sample size of 0.4 mL).

[3] = mice; cited from earlier work

CCOC(=O)OC[C@H]1O[C@@H](Oc2nn(C(C)C)c(C)c2Cc2ccc(OC(C)C)cc2)[C@H](O)[C@@H](O)[C@@H]1O [Remogliflozin etabonate, remogliflozin etabonate]
2 (25) n (%): At least one adverse event ([1]; 20 mg single oral dose) | Headache (adverse events reported by >1 subject in total) ([1]; 500 mg single oral dose)
1 (13) n (%): Diarrhea (drug-related adverse events) ([1]; 20 mg single oral dose) | Headache (adverse events reported by >1 subject in total) ([1]; 20 mg single oral dose) | Headache (drug-related adverse events) ([1]; 20 mg single oral dose) | Headache (adverse events reported by >1 subject in total) ([1]; 50 mg single oral dose) | Headache (drug-related adverse events) ([1]; 50 mg single oral dose) | At least one adverse event ([1]; 150 mg single oral dose) | Blood creatine phosphokinase increased (adverse events reported by >1 subject in total) ([1]; 500 mg single oral dose) | Dizziness (drug-related adverse events) ([1]; 1000 mg single oral dose) | Headache (adverse events reported by >1 subject in total) ([1]; 1000 mg single oral dose) | Headache (drug-related adverse events) ([1]; 1000 mg single oral dose) | Hot flush (drug-related adverse events) ([1]; 1000 mg single oral dose) | At least one adverse event ([1]; 1000 mg single oral dose)
3 (38) n (%): At least one adverse event ([1]; 50 mg single oral dose) | At least one adverse event ([1]; 500 mg single oral dose)
0 n (%): Blood creatine phosphokinase increased (adverse events reported by >1 subject in total) ([1]; 20 mg single oral dose) | Dizziness (drug-related adverse events) ([1]; 20 mg single oral dose) | Hot flush (drug-related adverse events) ([1]; 20 mg single oral dose) | Blood creatine phosphokinase increased (adverse events reported by >1 subject in total) ([1]; 50 mg single oral dose) | Diarrhea (drug-related adverse events) ([1]; 50 mg single oral dose) | Dizziness (drug-related adverse events) ([1]; 50 mg single oral dose) | Hot flush (drug-related adverse events) ([1]; 50 mg single oral dose) | Blood creatine phosphokinase increased (adverse events reported by >1 subject in total) ([1]; 150 mg single oral dose) | Diarrhea (drug-related adverse events) ([1]; 150 mg single oral dose) | Dizziness (drug-related adverse events) ([1]; 150 mg single oral dose) | Headache (adverse events reported by >1 subject in total) ([1]; 150 mg single oral dose) | Headache (drug-related adverse events) ([1]; 150 mg single oral dose) | Hot flush (drug-related adverse events) ([1]; 150 mg single oral dose) | Diarrhea (drug-related adverse events) ([1]; 500 mg single oral dose) | Dizziness (drug-related adverse events) ([1]; 500 mg single oral dose) | Headache (drug-related adverse events) ([1]; 500 mg single oral dose) | Hot flush (drug-related adverse events) ([1]; 500 mg single oral dose) | Blood creatine phosphokinase increased (adverse events reported by >1 subject in total) ([1]; 1000 mg single oral dose) | Diarrhea (drug-related adverse events) ([1]; 1000 mg single oral dose)
clearly attenuated: Increases in plasma glucose following an OGTT ([2]; 50 mg RE vs placebo, altered little from 50 mg to 500 mg)
concentration-dependent increase: Urinary glucose excretion [3]
-8.85 pM·h: median baseline adjusted AUC(0–4) for plasma GLP-1 following an OGTT ([2]; 50 mg)
no clear trends: Plasma insulin following the glucose load ([2]; 50 and 500 mg)
generally well-tolerated: Tolerability ([1]; all subjects, single oral doses 20-1000 mg, no deaths, serious adverse events or withdrawals)
-1.95 pM·h: median baseline adjusted AUC(0–4) for plasma GLP-1 following an OGTT ([2]; 500 mg)

Source: paper PMC3700763, “First human dose-escalation study with remogliflozin etabonate, a selective inhibitor of the sodium-glucose transporter 2 (SGLT2), in healthy subjects and in subjects with type 2 diabetes mellitus” (BMC Pharmacology & Toxicology, 2013)
